“Also recorded” adds a separate entry of the source. Like-named read-outs stand apart in the source and are kept apart here.
Legend:
CYP2C-1 = experiment: IC50-shift experiment, CYP2C-1 in RLMs; assay type: in vitro ADME, rat
CYP3A = experiment: Reversible inhibition kinetics (Lineweaver-Burk), CYP3A in RLMs; assay type: in vitro ADME, rat
Protocol: (§1) The components of the incubation system were as follows: 0.20 mg/mL HLMs or 0.20 mg/mL RLMs, 0.1 M Tris-HCl, vortioxetine, and the probe substrates of each enzyme. In the study of Km’s (Michaelis–Menten constant) experiment, midazolam (1, 2, 5, 10, 20, 50 and 100 μM in HLMs and RLMs) corresponded to CYP3A4/3A; bupropion (10, 20, 50, 100, 200, 500, 1,000 and 2000 μM in HLMs; 1, 2, 5, 10, 20, 50, 100 and 200 μM in RLMs) corresponded to CYP2B6/2B; amodiaquine (5, 10, 20, 50, 100 and 200 μM in HLMs; 10, 20, 50, 100, 200, 500 μM in RLMs) corresponded to CYP2C8/CYP2C-1; losartan (1, 2, 5, 10, 20, 50, 100, 200 μM in HLMs; 10, 20, 50, 100, 200, 500 and 1,000 μM in RLMs) corresponded to CYP2C9/CYP2C-2; mephenytoin (20, 50, 100, 200, 500 and 1,000 μM in HLMs; 5, 10, 20, 50, 100, 200, 500 and 1,000 μM in RLMs) corresponded to CYP2C19/CYP2C-3; and dextromethorphan (1, 2, 5, 10, 20, 50 and 100 μM in HLMs and RLMs) corresponded to CYP2D6/CYP2D. […]
(§2) All experiments results were detected by UPLC-MS/MS, which equipped with a Waters Acquity UPLC system (Milford, MA, United States) and a Waters Xevo TQ-S triple quadrupole tandem mass spectrometer with an electrospray ionization source (Milford, MA, United States). […]
(§3) IC50 values and enzyme kinetic parameters were calculated by Graphpad Prism 6.0 (GraphPad software Inc., CA, United States). […] Data for each experiment were expressed as mean ± SD (n = 3).

CYP450 = experiment: Overall assessment of time-dependent inhibition (IC50-shift) on CYP450 in HLMs and RLMs; assay type: in vitro ADME, human and rat
Protocol: (§4) IC50-shift was used to investigate whether the drug produced time-dependent inhibition (TDI) of the enzyme. […] The above mixture was then incubated for another 30 min. During the experiment, the individual substrates midazolam (4 μM), bupropion (40 μM), amodiaquine (3 μM), losartan (8 μM), mephenytoin (90 μM), and dextromethorphan (10 μM) were determined with vortioxetine IC50-shift in HLMs. […] Other experimental conditions were the same as above.

CYP2C9 = CYP2C9 (Homo sapiens, UniProt P11712); experiment: IC50 of vortioxetine on CYP2C9 (losartan) in HLMs; assay type: in vitro ADME; design: 0.20 mg/mL HLMs; from tissue; host or cells: human liver microsomes
Chain of CYP2C9 (P11712 whole entry): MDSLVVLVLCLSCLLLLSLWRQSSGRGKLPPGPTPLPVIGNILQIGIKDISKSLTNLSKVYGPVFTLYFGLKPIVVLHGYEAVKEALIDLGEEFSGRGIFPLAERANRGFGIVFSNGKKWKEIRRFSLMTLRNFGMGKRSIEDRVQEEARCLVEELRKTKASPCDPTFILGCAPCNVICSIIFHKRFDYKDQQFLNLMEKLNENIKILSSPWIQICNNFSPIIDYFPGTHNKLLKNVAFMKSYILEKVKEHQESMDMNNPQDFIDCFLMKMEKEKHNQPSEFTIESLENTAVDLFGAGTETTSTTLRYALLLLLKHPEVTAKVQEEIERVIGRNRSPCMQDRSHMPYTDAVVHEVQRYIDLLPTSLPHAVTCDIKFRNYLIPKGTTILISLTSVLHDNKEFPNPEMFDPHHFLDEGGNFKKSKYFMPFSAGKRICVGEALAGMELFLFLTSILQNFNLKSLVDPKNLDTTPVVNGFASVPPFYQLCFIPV
Protocol: as §1, §2, §3

CYP2C19 = CYP2C19 (Homo sapiens, UniProt P33261); experiment: IC50-shift experiment, CYP2C19 in HLMs; assay type: in vitro ADME; design: 0.20 mg/mL HLMs or 0.20 mg/mL RLMs; from tissue; host or cells: human liver microsomes; settings: for IC50: mephenytoin 90 μM
Chain of CYP2C19 (P33261 whole entry): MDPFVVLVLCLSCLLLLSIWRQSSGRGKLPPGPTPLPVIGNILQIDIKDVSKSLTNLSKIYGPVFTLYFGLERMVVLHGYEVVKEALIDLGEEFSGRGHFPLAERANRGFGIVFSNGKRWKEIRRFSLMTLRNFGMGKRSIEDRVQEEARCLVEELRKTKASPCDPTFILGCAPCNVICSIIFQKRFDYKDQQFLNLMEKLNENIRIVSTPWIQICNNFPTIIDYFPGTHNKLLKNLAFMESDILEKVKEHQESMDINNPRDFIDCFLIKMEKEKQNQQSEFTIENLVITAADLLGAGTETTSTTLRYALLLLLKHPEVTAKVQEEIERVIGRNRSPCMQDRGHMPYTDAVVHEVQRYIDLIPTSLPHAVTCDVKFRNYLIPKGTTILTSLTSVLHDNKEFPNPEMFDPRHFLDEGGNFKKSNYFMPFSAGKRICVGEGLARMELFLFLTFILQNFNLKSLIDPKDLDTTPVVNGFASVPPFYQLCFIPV
Protocol: (§5) The components of the incubation system were as follows: 0.20 mg/mL HLMs or 0.20 mg/mL RLMs, 0.1 M Tris-HCl, vortioxetine, and the probe substrates of each enzyme. In the study of Km’s (Michaelis–Menten constant) experiment, midazolam (1, 2, 5, 10, 20, 50 and 100 μM in HLMs and RLMs) corresponded to CYP3A4/3A; bupropion (10, 20, 50, 100, 200, 500, 1,000 and 2000 μM in HLMs; 1, 2, 5, 10, 20, 50, 100 and 200 μM in RLMs) corresponded to CYP2B6/2B; amodiaquine (5, 10, 20, 50, 100 and 200 μM in HLMs; 10, 20, 50, 100, 200, 500 μM in RLMs) corresponded to CYP2C8/CYP2C-1; losartan (1, 2, 5, 10, 20, 50, 100, 200 μM in HLMs; 10, 20, 50, 100, 200, 500 and 1,000 μM in RLMs) corresponded to CYP2C9/CYP2C-2; mephenytoin (20, 50, 100, 200, 500 and 1,000 μM in HLMs; 5, 10, 20, 50, 100, 200, 500 and 1,000 μM in RLMs) corresponded to CYP2C19/CYP2C-3; and dextromethorphan (1, 2, 5, 10, 20, 50 and 100 μM in HLMs and RLMs) corresponded to CYP2D6/CYP2D. After 5.0 min of preincubation in the shaking water bath, the reaction was started with the addition of 1.0 mM NADPH. The incubated temperature at 37°C for 30 min. After the incubation, the enzyme reaction was stopped by cooling at −80°C, and 200 μL of acetonitrile and 20 μL of internal standard diazepam (200 ng/mL) were added for protein precipitation. The solution was fully vortexed and centrifuged at 13,000 × rpm for 10 min, and the supernatant was collected for data analysis by UPLC-MS/MS.
as §4
All experiments results were detected by UPLC-MS/MS, which equipped with a Waters Acquity UPLC system (Milford, MA, United States) and a Waters Xevo TQ-S triple quadrupole tandem mass spectrometer with an electrospray ionization source (Milford, MA, United States). The chromatographic separation was performed on a Waters ACQUITY UPLC BEH C18 column (2.1 × 50 mm, 1.7 μm, Waters Corp.) at 40°C. The mobile phase was consisted of acetonitrile (A) and 0.1% formic acid in water (B). The gradient elution at a flow rate of 0.4 mL/min was conducted as follows: 0–0.5 min, 10% A; 0.5–1.0 min, 10%–90% A; 1.0–2.0 min, 90% A; 2.0–2.1 min, 90%–10% A, and 2.1–3.0 min, 10% A. The relevant analysis parameters were shown in Table 1.
as §3

CYP2D6 = CYP2D6 (Homo sapiens, UniProt P10635); experiment: IC50-shift experiment, CYP2D6 in HLMs; assay type: in vitro ADME; design: 0.20 mg/mL HLMs or 0.20 mg/mL RLMs; from tissue; host or cells: human liver microsomes; settings: for IC50: dextromethorphan 10 μM
Chain of CYP2D6 (P10635 whole entry): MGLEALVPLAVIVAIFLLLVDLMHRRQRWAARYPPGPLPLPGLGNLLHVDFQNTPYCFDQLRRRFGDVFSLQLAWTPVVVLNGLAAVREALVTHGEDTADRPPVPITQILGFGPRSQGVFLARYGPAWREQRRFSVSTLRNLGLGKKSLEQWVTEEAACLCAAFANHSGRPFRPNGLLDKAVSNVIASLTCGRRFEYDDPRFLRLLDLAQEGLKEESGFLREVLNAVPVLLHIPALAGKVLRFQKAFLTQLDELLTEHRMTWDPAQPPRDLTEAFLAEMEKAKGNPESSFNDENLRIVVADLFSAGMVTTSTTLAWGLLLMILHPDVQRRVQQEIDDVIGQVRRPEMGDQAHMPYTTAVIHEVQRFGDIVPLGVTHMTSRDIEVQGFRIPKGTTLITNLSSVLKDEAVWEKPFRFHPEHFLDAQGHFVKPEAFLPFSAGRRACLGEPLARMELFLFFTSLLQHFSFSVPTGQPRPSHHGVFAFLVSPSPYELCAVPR
Protocol: as §5, with “The solution was fully vortexed and centrifuged at 13,000 × rpm for 10 min, and the supernatant was collected for data analysis by UPLC-MS/MS.” left out
IC50-shift was used to investigate whether the drug produced time-dependent inhibition (TDI) of the enzyme. […] During the experiment, the individual substrates midazolam (4 μM), bupropion (40 μM), amodiaquine (3 μM), losartan (8 μM), mephenytoin (90 μM), and dextromethorphan (10 μM) were determined with vortioxetine IC50-shift in HLMs. […]
as §2, §3

## Cc1ccc(Sc2ccccc2N2CCNCC2)c(C)c1 [vortioxetine]
CYP2C-1; 30 min preincubation without NADPH, amodiaquine 20 μM
  IC50: 19.8 µM
CYP2C-1; rat, rat liver microsomes, probe amodiaquine, 30 min preincubation without NADPH, amodiaquine 20 μM
  IC50 at 30 min: 18.3 µM
CYP2C-1; rat, rat liver microsomes, probe amodiaquine, ratio IC50 (−) NADPH to IC50 (+) NADPH, read-out: IC50 fold shift
  IC50 shift at 30 min: 1.98
CYP3A; midazolam, Lineweaver-Burk plot
  Inhibition type: uncompetitive inhibition
CYP3A; rat, rat liver microsomes, probe midazolam
  Ki at 30 min: 4.41 µM
CYP450; all CYP450 enzymes studied
  reversibility of inhibition of CYP450 enzymes: reversible inhibition
CYP450; six CYP450 isoforms in HLMs and RLMs, judged by IC50-shift (>10 = TDI)
  time-dependent inhibition (TDI): no time-dependent inhibition (TDI); also recorded: no TDI effect
CYP2C9; HLMs 0.20 mg/mL, losartan at Km, 37°C, 30 min, read-out: IC50
  IC50: 23 µM
CYP2C9; inhibitory effect (strength judged by IC50), HLMs
  IC50: > 10 µM
CYP2C19; CYP2C19, 30 min preincubation with 1.0 mM NADPH
  IC50: 2.83 µM
CYP2C19; CYP2C19, 30 min preincubation without NADPH
  IC50: 5.88 µM
CYP2C19; human, human liver microsomes, probe mephenytoin (90 μM), CYP2C19, ratio IC50 (−) NADPH to IC50 (+) NADPH, read-out: IC50 fold shift
  IC50 shift at 30 min: 2.08
CYP2C19; preincubation with NADPH vs without
  activity of CYP2C19 with the NADPH: significantly reduced
CYP2D6; 30 min preincubation with 1.0 mM NADPH
  IC50: 18.4 µM
CYP2D6; 30 min preincubation without NADPH
  IC50: 19.4 µM
CYP2D6; human, human liver microsomes, probe dextromethorphan (10 μM), ratio IC50 (−) NADPH to IC50 (+) NADPH, read-out: IC50 fold shift
  IC50 shift at 30 min: 1.06

— PMC10544575, “Inhibitory mechanism of vortioxetine on CYP450 enzymes in human and rat liver microsomes” (Frontiers in Pharmacology, 2023)
